# Measurements taken from ChEMBL document CHEMBL1201862, “PubChem BioAssay data set” (2004).
#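 Briefly, cells in 96-well plates were exposed to five compound concentrations for 48 h, and endpoints were estimated by linear interpolation. The concentration for 50% growth inhibition is given as GI50.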 Calls of active or inactive are those of the source. Rule as the data show it: active = GI50 up to about 1.1 µM and inactive = higher.
# Experiments:
# Assay in all cases: NCI anticancer screen, dose series, 48 h
# [1] = test system: NCI/ADR-RES
# [2] = test system: UACC-62
# [3] = test system: OVCAR-8
# [4] = test system: U-251
# [5] = test system: SR
# [6] = test system: OVCAR-3
# [7] = test system: HOP-62
# [8] = test system: LOX IMVI
# [9] = test system: HT-29
# [10] = test system: UACC-257
# [11] = test system: SK-MEL-28
# [12] = test system: SK-MEL-2
# [13] = test system: SK-MEL-5
# [14] = test system: A549
# [15] = test system: MDA-MB-435
# [16] = test system: T47D
# [17] = test system: SNB-75
# [18] = test system: CCRF-CEM
# [19] = test system: SK-OV-3
Structure (SMILES),GI50 [1],GI50 [2],GI50 [3],GI50 [4],GI50 [5],GI50 [6],GI50 [7],GI50 [8],GI50 [9],GI50 [10],GI50 [11],GI50 [12],GI50 [13],GI50 [14],GI50 [15],GI50 [16],GI50 [17],GI50 [18],GI50 [19]
CC1(CCOCc2ccccc2)NC(=O)NC1=O (stereo unspecified),> 100 µM (inactive),> 100 µM (inactive),> 100 µM (inactive),> 100 µM (inactive),> 100 µM (inactive),> 100 µM (inactive),> 100 µM (inactive),> 100 µM (inactive),> 100 µM (inactive),> 100 µM (inactive),> 100 µM (inactive),> 100 µM (inactive),> 100 µM (inactive),> 100 µM (inactive),> 100 µM (inactive),–,–,–,–
O=S(=O)(Cc1cnc(O)nc1O)Cc1cnc(O)nc1O,> 100 µM (inactive),> 100 µM (inactive),> 100 µM (inactive),> 100 µM (inactive),37.8 µM (inactive),–,–,> 100 µM (inactive),> 100 µM (inactive),> 100 µM (inactive),> 100 µM (inactive),> 100 µM (inactive),> 100 µM (inactive),> 100 µM (inactive),> 100 µM (inactive),> 100 µM (inactive),> 100 µM (inactive),–,–
Cc1cc(S(=O)(=O)Nc2nc(N)nc(N(C)C)n2)c(S)cc1Cl,> 10 µM (inactive),–,> 10 µM (inactive),> 10 µM (inactive),> 10 µM (inactive),> 10 µM (inactive),> 10 µM (inactive),> 10 µM (inactive),> 10 µM (inactive),> 10 µM (inactive),> 10 µM (inactive),> 10 µM (inactive),> 10 µM (inactive),> 10 µM (inactive),–,> 10 µM (inactive),> 10 µM (inactive),> 10 µM (inactive),> 10 µM (inactive)
C/C=C1/CN2CCC34C(=C(C(=O)OC)C1CC23)Nc1ccc(O)cc14 (stereo unspecified),> 100 µM (inactive),> 100 µM (inactive),> 100 µM (inactive),> 100 µM (inactive),–,> 100 µM (inactive),–,> 100 µM (inactive),> 100 µM (inactive),> 100 µM (inactive),> 100 µM (inactive),> 100 µM (inactive),> 100 µM (inactive),> 100 µM (inactive),> 100 µM (inactive),> 100 µM (inactive),> 100 µM (inactive),> 100 µM (inactive),> 100 µM (inactive)
O=C1c2ccccc2-c2c1c(-c1ccc([N+](=O)[O-])cc1)nc1ccc3ccccc3c21,> 100 µM (inactive),> 100 µM (inactive),> 100 µM (inactive),> 100 µM (inactive),–,> 100 µM (inactive),> 100 µM (inactive),–,> 100 µM (inactive),> 100 µM (inactive),> 100 µM (inactive),> 100 µM (inactive),–,> 100 µM (inactive),> 100 µM (inactive),> 100 µM (inactive),> 100 µM (inactive),> 100 µM (inactive),> 100 µM (inactive)
O=C1C(=CNC(=S)c2ccccc2)C(=O)c2ccccc21,61.5 µM (inactive),28.8 µM (inactive),54.6 µM (inactive),64.9 µM (inactive),–,76 µM (inactive),91.8 µM (inactive),43.1 µM (inactive),> 100 µM (inactive),55.1 µM (inactive),> 100 µM (inactive),39.5 µM (inactive),58.9 µM (inactive),67.5 µM (inactive),71.8 µM (inactive),60.1 µM (inactive),58.9 µM (inactive),25 µM (inactive),21.7 µM (inactive)
COc1cc(Cc2nccc3cc(OC)c(OC)cc23)c(/N=N/N(C)C)cc1OC,23.1 µM (inactive),13.2 µM (inactive),15.7 µM (inactive),19.1 µM (inactive),–,15.5 µM (inactive),23.7 µM (inactive),–,10.4 µM (inactive),20.3 µM (inactive),11.2 µM (inactive),30.6 µM (inactive),12.1 µM (inactive),23.4 µM (inactive),18.5 µM (inactive),5.36 µM (inactive),34 µM (inactive),3.18 µM (inactive),18.5 µM (inactive)
COc1c(Br)cc(/C=C(\C#N)c2ccccn2)cc1Br,39.4 µM (inactive),10.8 µM (inactive),34.5 µM (inactive),13.3 µM (inactive),> 100 µM (inactive),> 100 µM (inactive),22.2 µM (inactive),–,> 100 µM (inactive),> 100 µM (inactive),> 100 µM (inactive),13.8 µM (inactive),> 100 µM (inactive),> 100 µM (inactive),–,–,0.891 µM (active),> 100 µM (inactive),15.3 µM (inactive)
